In ChEMBL document CHEMBL1121518, “Congeners of the beta conformer of dopamine derived from cis- and trans-octahydrobenzo[f]quinoline and trans-octahydrobenzo[g]quinoline” (1980):

Experiments:
Canis familiaris [1] = species: Canis familiaris; test: Tested for mean blood pressure in dog after ID50 dose; assay type: functional, Canis lupus familiaris
Canis familiaris [2] = test: Tested for mean heart rate in dog before drug administration; assay type: functional, Canis lupus familiaris
Canis familiaris [3] = test: Tested for mean blood pressure in dog before drug administration; assay type: functional, Canis lupus familiaris
Felis catus = species: Felis catus; test: Tested for inhibition of cardioaccelerator nerves of cat; assay type: functional; conditions: read-out: ID50 (the source's name)
Canis familiaris [4] = species: Canis familiaris; test: Tested for mean heart rate in dog after ID50 dose; assay type: functional, Canis lupus familiaris
[5] = molecular target: T1, Alpha-1A adrenergic receptor (Homo sapiens) (UniProt P35348); test: Inhibitory activity against adrenergic alpha-receptor transmission, its effect being blocked by phentolamine; conditions: Felis catus
T1 sequence (whole entry): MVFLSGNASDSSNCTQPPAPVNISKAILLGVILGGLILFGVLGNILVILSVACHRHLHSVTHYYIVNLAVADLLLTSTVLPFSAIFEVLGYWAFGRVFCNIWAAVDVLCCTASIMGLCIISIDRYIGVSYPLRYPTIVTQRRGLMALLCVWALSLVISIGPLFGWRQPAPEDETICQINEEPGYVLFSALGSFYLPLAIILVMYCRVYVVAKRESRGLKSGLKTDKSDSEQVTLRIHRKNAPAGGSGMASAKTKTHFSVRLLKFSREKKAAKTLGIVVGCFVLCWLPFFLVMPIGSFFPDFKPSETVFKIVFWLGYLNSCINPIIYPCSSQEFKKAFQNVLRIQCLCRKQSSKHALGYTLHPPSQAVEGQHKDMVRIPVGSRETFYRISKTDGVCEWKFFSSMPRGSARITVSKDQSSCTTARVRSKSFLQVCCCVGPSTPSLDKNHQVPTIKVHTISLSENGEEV

Q: Br.CN1CCC[C@@H]2c3cc(O)c(O)cc3CC[C@H]21 was tested. Which Activity (Canis familiaris [1]) did it give?
A: Its Activity is 95.6 mmHg.

Q: And the Activity (Canis familiaris [2])?
A: Its Activity is 175.4 beats min-1.

Q: What about the Activity (Canis familiaris [3]) of the same compound?
A: The Activity was 116.7 mmHg.

Q: And the ED50 (Felis catus)?
A: The ED50 was 0.0055 µmol/kg.

Q: What about the Activity (Canis familiaris [4]) of the same compound?
A: Its Activity is 160.9 beats min-1.

Q: How did the Activity (Canis familiaris [1]) turn out when Br.CN1CCCC2c3cc(O)c(O)cc3CCC21 (cis isomer) was run?
A: Its Activity is 95.4 mmHg.

Q: And the Activity (Canis familiaris [2])?
A: The Activity was 174 beats min-1.

Q: And the Activity (Canis familiaris [3])?
A: The Activity was 125.8 mmHg.

Q: What about the ED50 (Felis catus) of the same compound?
A: The ED50 was 0.31 µmol/kg.

Q: What about the Activity [5] of the same compound?
A: Its Activity is 2 mg/kg.

Q: And the Activity (Canis familiaris [4])?
A: Its Activity is 158.6 beats min-1.

Q: What does the source list for CN1CCc2cccc3c2[C@H]1Cc1ccc(O)c(O)c1-3 [APOMORPHINE]?
A: Activity (Canis familiaris [1]): 92 mmHg; Activity (Canis familiaris [2]): 139.2 beats min-1; Activity (Canis familiaris [3]): 109.5 mmHg; ED50 (Felis catus): 0.022 µmol/kg; Activity (Canis familiaris [4]): 128.9 beats min-1

Q: With Br.CCN1CCCC2c3cc(O)c(O)cc3CCC21 (stereo unspecified) as the compound, how does the Activity (Canis familiaris [1]) read?
A: The Activity was 89.8 mmHg.

Q: What about the Activity (Canis familiaris [2]) of the same compound?
A: The Activity was 183 beats min-1.

Q: And the Activity (Canis familiaris [3])?
A: Its Activity is 115 mmHg.

Q: And the ED50 (Felis catus)?
A: The ED50 was 0.45 µmol/kg.

Q: And the Activity (Canis familiaris [4])?
A: Its Activity is 162.8 beats min-1.

Q: Which results are given for Br.CCCN1CCC[C@@H]2c3cc(O)c(O)cc3CC[C@H]21?
A: Activity (Canis familiaris [1]): 73.6 mmHg; Activity (Canis familiaris [2]): 178 beats min-1; Activity (Canis familiaris [3]): 116.4 mmHg; ED50 (Felis catus): 0.0013 µmol/kg; Activity (Canis familiaris [4]): 156.9 beats min-1

Q: Which Activity (Canis familiaris [1]) does the source give for Br.CCN1CCC[C@@H]2c3cc(O)c(O)cc3CC[C@H]21 here?
A: The Activity was 90.9 mmHg.

Q: And the Activity (Canis familiaris [2])?
A: The Activity was 176.9 beats min-1.

Q: What about the Activity (Canis familiaris [3]) of the same compound?
A: Its Activity is 115.4 mmHg.

Q: What about the ED50 (Felis catus) of the same compound?
A: Its ED50 is 0.0009 µmol/kg.

Q: What about the Activity (Canis familiaris [4]) of the same compound?
A: The Activity was 161.3 beats min-1.

Q: With Br.CCCN1CCCC2c3cc(O)c(O)cc3CCC21 (stereo unspecified) as the compound, how does the Activity (Canis familiaris [1]) read?
A: Its Activity is 82.9 mmHg.

Q: And the Activity (Canis familiaris [2])?
A: Its Activity is 175.7 beats min-1.

Q: What about the Activity (Canis familiaris [3]) of the same compound?
A: The Activity was 114.9 mmHg.

Q: And the ED50 (Felis catus)?
A: The ED50 was 0.26 µmol/kg.

Q: And the Activity (Canis familiaris [4])?
A: The Activity was 165 beats min-1.
